From patent US11111230B2 (ADLAI NORTYE BIOPHARMA CO., LTD., priority 2017, dated 2021)

Key:
[1] = test system: Hela cells; assay: Activity in Hela cells (interferon-γ induced, kynurenine readout with Ehrlich's reagent); format: cell-based; conditions: Homo sapiens, interferon-γ 50 ng/mL, tryptophan 16 mg/L, 48 hours, absorption at 480 nm
Protocol: Example 1: Study on the Activity of the Compound of the Present Invention in Hela Cells
Hela cells were seeded in 96-well culture plates and incubated at 37° C., 100% relative humidity, 5% CO2 incubator for 24 hours. The compound was dissolved in DMSO and diluted to an appropriate concentration, and then the compound was diluted 100-fold with DMEM medium containing interferon-γ and 10% fetal bovine serum to the final concentration of effect. Aspirate the old medium from the 96-well plate and add 200 μL of each medium containing compound and interferon-γ from the previous step. The content of tryptophan in the medium is 16 mg/L, and the concentration of interferon-γ is 50 ng/mL. The cells were placed in a 37° C., 100% relative humidity, and 5% CO2 incubator for 48 hours, then 140 μL of the cell culture supernatant was mixed with 15 μL of trichloroacetic acid, and placed at 52° C. for 30 min, then centrifuged at room temperature to take the centrifugal supernatant. Mix with an equal volume of Ehrlich's reagent, measure the light absorption at 480 nm, and calculate the IC50 values.

[2] = target: T1, human IDO1 protein (Homo sapiens, UniProt P14902); assay: Activity in HEK293 cells highly expressing human IDO1 protein; format: cell-based; conditions: HEK293-IDO cells, tryptophan 16 mg/L, 24 hours, absorption at 480 nm; read-out: IC50 (HEK293 cell)
T1 construct: expressed in transfected cells; host or cells: HEK293
T1 sequence (P14902 whole entry): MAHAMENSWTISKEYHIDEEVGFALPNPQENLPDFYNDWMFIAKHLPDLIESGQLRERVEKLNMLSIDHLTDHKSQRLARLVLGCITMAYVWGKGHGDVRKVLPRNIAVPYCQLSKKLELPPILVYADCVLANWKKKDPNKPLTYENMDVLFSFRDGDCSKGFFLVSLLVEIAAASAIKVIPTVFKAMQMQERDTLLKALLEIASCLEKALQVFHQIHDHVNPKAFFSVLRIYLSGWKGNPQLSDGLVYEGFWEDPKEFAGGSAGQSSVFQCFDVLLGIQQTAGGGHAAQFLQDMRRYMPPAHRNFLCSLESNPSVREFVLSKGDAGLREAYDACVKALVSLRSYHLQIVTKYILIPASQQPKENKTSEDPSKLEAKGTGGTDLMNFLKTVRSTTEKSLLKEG
Protocol: Example 2: Study on the Activity of the Present Invention in HEK293 Cells Highly Expressing Human IDO1 Protein
HEK293-IDO cells with high expression of human IDO1 protein were prepared by electrotransformation, and the cells were seeded in 96-well culture plates, and cultured at 37° C., 100% relative humidity, and 5% CO2 incubator for 24 hours. Dissolve in DMSO and dilute to the appropriate concentration, then use DMEM medium containing 10% fetal bovine serum to dilute the candidate 100-fold to the final concentration. Aspirate the old medium from the 96-well plate and add 200 μL of the medium contained in the previous step to each well. The content of tryptophan in the medium is 16 mg/L. The cells were placed in a 37° C., 100% relative humidity, and 5% CO2 incubator for 24 hours. 140 μL of the cell culture supernatant was mixed with 15 μL of trichloroacetic acid and placed at 52° C. for 30 min. Mix with an equal volume of Ehrlich's reagent, measure the light absorption at 480 nm, and calculate the IC50 values.

Structure (SMILES)	IC50 [1]	IC50 [2]
O=C(Nc1ccc(Cl)s1)C1CC12CCC(c1ccnc3ccc(F)cc13)CC2 (stereo not drawn) [Compound 13, N-(5-chlorothiophen-2-yl)-6-(6-fluoroquinolin-4-yl)spiro[2.5]octane-1-carboxamide]	10 to 100 nM	10 to 100 nM
COCCOc1ccc(NC(=O)C2CC23CCC(c2ccnc4cc(C)c(F)cc24)CC3)cc1 (stereo not drawn) [Compound 94, 6-(6-fluoro-7-methylquinolin-4-yl)-N-(4-(2-methoxyethoxy)phenyl)spiro[2.5]octane-1-carboxamide]	0.1 to 10 nM	10 to 100 nM
Cc1cc2nccc(C3CCC4(CC3)CC4C(=O)Nc3ccc(Cl)nc3)c2cc1F (stereo not drawn) [Compound 95, N-(6-chloropyridin-3-yl)-6-(6-fluoro-7-methylquinolin-4-yl)spiro[2.5]octane-1-carboxamide]	0.1 to 10 nM	10 to 100 nM
Cc1cc2nccc(C3CCC4(CC3)CC4C(=O)Nc3cncc(Cl)c3)c2cc1F (stereo not drawn) [Compound 96]	10 to 100 nM	> 100 nM
Cc1cc2nccc(C3CCC4(CC3)CC4C(=O)Nc3ccnc(Cl)c3)c2cc1F (stereo not drawn) [Compound 97]	> 100 nM	> 100 nM
O=C(Nc1ccc(Cl)cc1)C1CC12CCC(c1ccnc3cc(F)c(F)cc13)CC2 (stereo not drawn) [Compound 100, N-(4-chlorophenyl)-6-(6,7-difluoroquinolin-4-yl)spiro[2.5]octane-1-carboxamide]	0.1 to 10 nM	10 to 100 nM
COc1cc2nccc(C3CCC4(CC3)CC4C(=O)Nc3ccc(Cl)cc3)c2cc1OC (stereo not drawn) [Compound 101]	0.1 to 10 nM	10 to 100 nM
N#Cc1cc2nccc(C3CCC4(CC3)CC4C(=O)Nc3ccc(Cl)cc3)c2cc1F (stereo not drawn) [Compound 102, N-(4-chlorophenyl)-6-(7-cyano-6-fluoroquinolin-4-yl)spiro[2.5]octane-1-carboxamide]	0.1 to 10 nM	10 to 100 nM
O=C(Nc1ccc(Cl)cc1)C1CC12CCC(c1ccnc3cc4c(cc13)OCCO4)CC2 (stereo not drawn) [Compound 103, N-(4-chlorophenyl)-6-(2,3-dihydro-[1,4]dioxino[2,3-g]quinolin-9-yl)spiro[2.5]octane-1-carborboxamide]	> 100 nM	> 100 nM

Now from value to molecule:

IC50 [1]	IC50 [2]	Structure (SMILES)
> 100 nM	> 100 nM	O=C(Nc1ccc(Cl)cc1)C1CC12CCC(O)(c1ccnc3ccc(F)cc13)CC2 (stereo not drawn) [Compound 104, N-(4-chlorophenyl)-6-(6-fluoroquinolin-4-yl)-6-hydroxyspiro[2.5]octane-1-carboxamide]
10 to 100 nM	0.1 to 10 nM	COc1cc2nccc(C3CCC4(CC3)CC4C(=O)Nc3ccc(Cl)cc3)c2cc1F (stereo not drawn) [Compound 105, N-(4-chlorophenyl)-6-(6-fluoro-7-methoxyquinolin-4-yl)spiro[2.5]octane-1-carboxamide]
> 100 nM	> 100 nM	CC1(C(=O)Nc2ccc(Cl)cc2)CC12CCC(c1ccnc3ccc(F)cc13)CC2 (stereo not drawn) [Compound 106, N-(4-chlorophenyl)-6-(6-fluoroquinolin-4-yl)-1-methylspiro[2.5]octane-1-carboxamide]
> 100 nM	> 100 nM	N#CC1(C(=O)Nc2ccc(Cl)cc2)CC12CCC(c1ccnc3ccc(F)cc13)CC2 (stereo not drawn) [Compound 107, N-(4-chlorophenyl)-1-cyano-6-(6-fluoroquinolin-4-yl)spiro[2.5]octane-1-carboxamide]
10 to 100 nM	> 100 nM	O=C(Nc1ccc(Cl)cc1)C1CC12CCC(c1ccnc3cc4c(cc13)OCO4)CC2 (stereo not drawn) [Compound 110, 6-([1,3]dioxolo[4,5-g]quinolin-8-yl)-N-(4-chlorophenyl)spiro[2.5]octane-1-carboxamide]
> 100 nM	> 100 nM	COC(=O)COc1ccc(NC(=O)C2CC23CCC(c2ccnc4cc(C)c(F)cc24)CC3)cc1 (stereo not drawn) [Compound 111, Methyl 2-(4-(6-(6-fluoro-7-methylquinolin-4-yl)spiro[2.5]octane-1-carboxamido)phenoxy)acetate]
10 to 100 nM	> 100 nM	Cc1cc2nccc(C3CCC4(CC3)CC4C(=O)Nc3ccc(OCCO)cc3)c2cc1F (stereo not drawn) [Compound 112, 6-(6-fluoro-7-methylquinolin-4-yl)-N-(4-(2-hydroxyethoxy)phenyl)spiro[2.5]octane-1-carboxamide]
0.1 to 10 nM	10 to 100 nM	COCCOc1ccc(NC(=O)C2CC23CCC(c2ccnc4cc(OC)c(OC)cc24)CC3)cc1 (stereo not drawn) [Compound 113, 6-(6,7-dimethoxyquinolin-4-yl)-N-(4-(2-methoxyethoxy)phenyl)spiro[2.5]octane-1-carboxamide]
0.1 to 10 nM	10 to 100 nM	O=C(Nc1ccc(Cl)cc1)C1CC12CCC(c1ccnc3cc(CO)c(F)cc13)CC2 (stereo not drawn) [Compound 114, N-(4-chlorophenyl)-6-(6-fluoro-7-(hydroxymethyl)quinolin-4-yl)spiro[2.5]octane-1-carboxamide]
